ChEMBL document CHEMBL3826933, “Discovery of 7-(Prolinol-N-yl)-2-phenylamino-thiazolo[5,4-d]pyrimidines as Novel Non-Nucleoside Partial Agonists for the A2A Adenosine Receptor: Prediction from Molecular Modeling” (J Med Chem, 2016)
≈ marks a conversion by molar mass, not a printed value.

What was measured:
Adenosine receptor A3 = target: T1, Adenosine receptor A3 (Homo sapiens, UniProt P0DMS8); assay: biochemical
T1 sequence (P0DMS8 whole entry): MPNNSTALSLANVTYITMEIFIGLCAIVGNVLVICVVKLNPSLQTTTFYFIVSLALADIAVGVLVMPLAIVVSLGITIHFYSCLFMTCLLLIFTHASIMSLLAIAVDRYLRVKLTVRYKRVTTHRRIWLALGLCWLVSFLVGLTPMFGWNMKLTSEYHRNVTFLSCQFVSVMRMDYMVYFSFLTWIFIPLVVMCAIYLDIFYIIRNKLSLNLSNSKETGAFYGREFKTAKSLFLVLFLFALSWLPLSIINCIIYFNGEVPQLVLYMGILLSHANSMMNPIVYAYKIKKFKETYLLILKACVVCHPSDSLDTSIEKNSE
Description: Displacement of [3H]HEMADO from recombinant human adenosine A3 receptor expressed in CHO cell membrane after 3 hrs by microbeta scintillation counting method

Adenosine receptor A1 = target: T2, Adenosine receptor A1 (Homo sapiens, UniProt P30542); assay: Displacement of [3H]CCPA from recombinant human adenosine A1 receptor expressed in CHO cell membrane after 3 hrs by microbeta scintillation counting method; format: cell membranes
T2 sequence (P30542 whole entry): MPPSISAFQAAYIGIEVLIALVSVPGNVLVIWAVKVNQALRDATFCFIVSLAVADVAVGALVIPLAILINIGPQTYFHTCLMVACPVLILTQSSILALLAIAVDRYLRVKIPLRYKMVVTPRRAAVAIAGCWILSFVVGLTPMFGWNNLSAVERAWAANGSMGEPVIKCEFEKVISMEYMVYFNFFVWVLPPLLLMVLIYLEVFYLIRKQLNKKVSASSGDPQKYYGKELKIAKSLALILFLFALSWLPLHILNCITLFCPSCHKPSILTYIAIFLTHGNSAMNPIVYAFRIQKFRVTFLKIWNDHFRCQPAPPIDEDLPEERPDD

Adenosine receptor A2b = target: T3, Adenosine receptor A2b (Homo sapiens, UniProt P29275); assay: Antagonist activity at recombinant human adenosine A2B receptor expressed in CHOK1 cell membrane assessed as inhibition of NECA-stimulated adenylyl cyclase activity incubated for 20 mins in presence of [alpha32P]ATP; format: functional, cell-based, CHO-K1
T3 sequence (P29275 whole entry): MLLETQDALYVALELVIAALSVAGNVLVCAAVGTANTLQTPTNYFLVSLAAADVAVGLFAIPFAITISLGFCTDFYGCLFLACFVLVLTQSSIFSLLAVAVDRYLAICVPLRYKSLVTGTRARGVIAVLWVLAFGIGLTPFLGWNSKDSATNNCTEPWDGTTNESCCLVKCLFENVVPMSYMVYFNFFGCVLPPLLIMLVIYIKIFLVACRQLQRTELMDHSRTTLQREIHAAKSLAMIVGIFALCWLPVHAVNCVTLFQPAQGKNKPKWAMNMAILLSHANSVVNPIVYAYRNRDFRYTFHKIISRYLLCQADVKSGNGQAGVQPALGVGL

Adenosine receptor A2a [1] = target: T4, Adenosine receptor A2a (Homo sapiens, UniProt P29274); assay: Displacement of [3H]NECA from recombinant human adenosine A2A receptor expressed in CHO cell membrane after 3 hrs by microbeta scintillation counting method; format: cell membranes
T4 sequence (P29274 whole entry): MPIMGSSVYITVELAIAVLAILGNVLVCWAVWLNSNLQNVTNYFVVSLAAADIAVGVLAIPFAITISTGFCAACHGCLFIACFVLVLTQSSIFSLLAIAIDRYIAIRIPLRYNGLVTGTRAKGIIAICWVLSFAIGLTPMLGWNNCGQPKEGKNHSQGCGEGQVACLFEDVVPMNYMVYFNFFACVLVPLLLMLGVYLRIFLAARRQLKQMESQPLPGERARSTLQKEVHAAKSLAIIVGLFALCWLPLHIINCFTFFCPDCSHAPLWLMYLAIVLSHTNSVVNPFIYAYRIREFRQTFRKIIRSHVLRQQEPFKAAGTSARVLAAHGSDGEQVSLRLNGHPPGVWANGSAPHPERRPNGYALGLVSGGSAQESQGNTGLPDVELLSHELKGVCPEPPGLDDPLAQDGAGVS

Adenosine receptor A2a [2] = target: T4, Adenosine receptor A2a; assay: Partial agonist activity at recombinant human adenosine A2A receptor expressed in CHOK1 cell membrane assessed as adenylyl cyclase activity at 100 uM incubated for 20 mins in presence of [alpha32P]ATP relative to NECA; format: functional, cell-based; settings: CHO-K1
[3] = Thermodynamic equilibrium solubility of compound in water at 1 to 300 ug after overnight incubation by microplate reader analysis; format: physicochemical; settings: read-out: Therm_solubility
CHO [4] = assay: Selectivity ratio of Ki for recombinant human adenosine A3 receptor expressed in CHO cell membrane to Ki for recombinant human adenosine A2A receptor expressed in CHO cell membrane; format: cell-based
CHO [5] = assay: Selectivity ratio of Ki for recombinant human adenosine A1 receptor expressed in CHO cell membrane to Ki for recombinant human adenosine A2A receptor expressed in CHO cell membrane; format: cell-based
Adenosine receptor A2a [6] = target: T4, Adenosine receptor A2a; assay: Partial agonist activity at recombinant human adenosine A2A receptor expressed in CHOK1 cell membrane assessed as adenylyl cyclase activity at 1 to 100 uM incubated for 20 mins in presence of [alpha32P]ATP relative to NECA; format: functional, cell-based; settings: CHO-K1
[7] = Thermodynamic equilibrium solubility of compound in simulated gastric fluid at 1 to 300 ug after overnight incubation by microplate reader analysis; format: ADME; settings: read-out: Therm_solubility
[8] = Thermodynamic equilibrium solubility of compound in phosphate buffered saline at 1 to 300 ug after overnight incubation by microplate reader analysis; format: physicochemical; settings: read-out: Therm_solubility

Row | Compound | Ki (Adenosine receptor A3) [µM] | Ki (Adenosine receptor A1) [µM] | Ki (Adenosine receptor A2b) [µM] | Ki (Adenosine receptor A2a [1]) [µM] | Efficacy (Adenosine receptor A2a [2]) [%] | solubility thermodynamic [3] [µg/mL] | Ratio Ki (CHO [4]) | Ratio Ki (CHO [5]) | Efficacy (Adenosine receptor A2a [6]) [%] | solubility thermodynamic [7] [µg/mL] | solubility thermodynamic [8] [µg/mL]
1 | Clc1ccc(Nc2nc3c(N4CCCCC4)ncnc3s2)cc1 | 18.3 | > 100 | > 10 | 13.2 | – | – | – | – | – | – | –
2 | CN(C)c1ncnc2sc(Nc3ccc(Cl)cc3)nc12 | > 10 | > 100 | > 10 | > 100 | – | – | – | – | – | – | –
3 | OC[C@@H]1CCCN1c1ncnc2sc(Nc3ccc(Cl)cc3)nc12 | 0.934 | 0.629 | > 10 | 0.466 | 50 | – | – | – | – | – | –
4 | c1ccc(Nc2nc3c(N4CCNCC4)ncnc3s2)cc1 | > 10 | > 30 | > 10 | 9.09 | – | – | – | – | – | – | –
5 | Clc1ccc(Nc2nc3c(N4CCOCC4)ncnc3s2)cc1 | > 100 | > 100 | > 10 | 1.4 | – | – | – | – | – | – | –
6 | S=C(NCc1ccccc1)N(Cc1ccccc1)c1nc2c(Cl)ncnc2s1 | – | > 30 | > 10 | 1.87 | – | – | – | – | – | – | –
7 | Clc1ncnc2sc(Nc3cccc(Br)c3)nc12 | 3.9 | 12.6 | > 10 | 2.96 | – | – | – | – | – | – | –
8 | OC[C@@H]1CCCN1c1ncnc2sc(Nc3cccc(Br)c3)nc12 | 1.07 | 0.53 | > 10 | 0.153 | 50 | 160 (≈ 0.394 mM) | 3 | 3 | – | – | –
9 | Clc1ncnc2sc(NCCN3CCOCC3)nc12 | > 100 | > 100 | > 10 | > 100 | – | – | – | – | – | – | –
10 | CCN(CC)c1ncnc2sc(Nc3ccc(Cl)cc3)nc12 | 3.89 | 16.5 | > 10 | 11.2 | – | – | – | – | – | – | –
11 | OC[C@@H]1CCCN1c1ncnc2sc(Nc3c(F)cccc3F)nc12 | 3.42 | 7.97 | > 10 | 3.26 | 50 | – | – | – | – | – | –
12 | Fc1cccc(F)c1Nc1nc2c(Cl)ncnc2s1 | 17.2 | 17.8 | > 10 | 8.11 | – | – | – | – | – | – | –
13 | Clc1ncnc2sc(Nc3ccccc3)nc12 | 3.67 | > 100 | > 10 | 1.52 | – | – | – | – | – | – | –
14 | CCN1CCN(c2ncnc3sc(Nc4ccccc4)nc23)CC1 | > 30 | > 100 | > 10 | 8.39 | – | – | – | – | – | – | –
15 | c1ccc(Nc2nc3c(N4CCCCC4)ncnc3s2)cc1 | 12.1 | > 30 | > 10 | 0.98 | – | – | – | – | – | – | –
16 | Clc1ccc(Nc2nc3c(Cl)ncnc3s2)cc1 | 4.94 | 25 | > 10 | 2.69 | – | – | – | – | – | – | –
17 | c1ccc(Nc2nc3c(N4CCOCC4)ncnc3s2)cc1 | 4.46 | > 100 | > 10 | 0.333 | – | – | 13 | > 3000 | – | – | –
18 | Clc1ccc(Nc2nc3c(N4CCCC4)ncnc3s2)cc1 | 4.26 | > 100 | > 10 | 2.06 | – | – | – | – | 10 | – | –
19 | OC[C@@H]1CCCN1c1ncnc2sc(Nc3ccccc3)nc12 | 0.978 | 0.555 | > 10 | 0.2 | 50 | 4300 (≈ 13.1 mM) | 3 | 3 | – | 3500 (≈ 10.7 mM) | 4800 (≈ 14.7 mM)

Row | Compound | Ki (Adenosine receptor A3) [µM] | Ki (Adenosine receptor A1) [µM] | Ki (Adenosine receptor A2b) [µM] | Ki (Adenosine receptor A2a [1]) [µM] | Efficacy (Adenosine receptor A2a [2]) [%] | solubility thermodynamic [3] [µg/mL] | Ratio Ki (CHO [4]) | Ratio Ki (CHO [5]) | Efficacy (Adenosine receptor A2a [6]) [%] | solubility thermodynamic [7] [µg/mL] | solubility thermodynamic [8] [µg/mL]
20 | c1ccc(Nc2nc3c(N4CCCC4)ncnc3s2)cc1 | 8.63 | > 30 | > 10 | 0.351 | – | – | – | – | 10 | – | –
21 | O=C(Nc1nc2c(Cl)ncnc2s1)c1ccccc1 | 7.33 | 7.24 | > 10 | 1.5 | – | – | – | – | – | – | –
22 | O=[N+]([O-])c1ccc(Nc2nc3c(N4CCCC4)ncnc3s2)cc1 | 3.63 | > 30 | > 10 | 3.18 | – | – | – | – | – | – | –
23 | CN1CCN(c2ncnc3sc(Nc4ccc(Cl)cc4)nc23)CC1 | > 10 | > 100 | > 10 | > 100 | – | – | – | – | – | – | –
24 | COc1cc(Nc2nc3c(N4CCC[C@H]4CO)ncnc3s2)cc(OC)c1OC | 1.46 | 0.974 | > 10 | 0.33 | 50 | – | – | – | – | – | –
25 | Fc1cccc(F)c1Nc1nc2c(N3CCCC3)ncnc2s1 | 3.19 | 2.31 | > 10 | 2.26 | – | – | – | – | 10 | – | –
26 | Cc1ccc(Nc2nc3c(Cl)ncnc3s2)cc1 | 4.64 | > 100 | > 10 | 4.93 | – | – | – | – | – | – | –
27 | Cc1ccc(Nc2nc3c(N4CCCC4)ncnc3s2)cc1 | 0.563 | > 100 | > 10 | 0.974 | – | > 150 | – | – | 10 | – | –
28 | CN(C)c1ncnc2sc(Nc3ccccc3)nc12 | 1.28 | > 100 | > 10 | 1.27 | – | – | – | – | – | – | –
29 | CN1CCN(c2ncnc3sc(Nc4ccccc4)nc23)CC1 | 4.31 | > 30 | > 10 | 2.84 | – | – | – | – | – | – | –
30 | O=[N+]([O-])c1ccc(Nc2nc3c(Cl)ncnc3s2)cc1 | 7.95 | > 30 | > 10 | > 30 | – | – | – | – | – | – | –
31 | Brc1cccc(Nc2nc3c(N4CCCC4)ncnc3s2)c1 | 1.29 | > 100 | > 10 | 0.245 | – | > 150 | – | – | 10 | – | –
32 | COc1ccc(Nc2nc3c(Cl)ncnc3s2)cc1 | 5.88 | 11.5 | > 10 | 3.57 | – | – | – | – | – | – | –
33 | Cc1ccc(Nc2nc3c(N4CCC[C@H]4CO)ncnc3s2)cc1 | 0.843 | 0.399 | > 10 | 0.313 | 50 | – | – | – | – | – | –
34 | COc1cc(Nc2nc3c(Cl)ncnc3s2)cc(OC)c1OC | 2.65 | > 100 | > 10 | 1.05 | – | – | – | – | – | – | –
35 | COc1ccc(Nc2nc3c(N4CCC[C@H]4CO)ncnc3s2)cc1 | 0.594 | 0.713 | > 10 | 1.11 | – | – | – | – | – | – | –
36 | COc1cc(Nc2nc3c(N4CCCC4)ncnc3s2)cc(OC)c1OC | 1.28 | > 100 | > 10 | 0.102 | – | – | 12 | > 100 | 10 | – | –
37 | c1ccc(Nc2nc3c(N4CCC(N5CCCCC5)CC4)ncnc3s2)cc1 | > 100 | > 100 | > 10 | > 100 | – | – | – | – | – | – | –
38 | CCN(CC)c1ncnc2sc(Nc3ccccc3)nc12 | > 30 | > 100 | > 10 | 2.21 | – | – | – | – | – | – | –
